What was measured:
FLK-1 receptor = assay: FLK-1 Assay (cellular/catalytic ELISA, VEGF-stimulated phosphotyrosine); assay type: cell-based; design: concentration or dose not given beside the values
Procedure: (§1) The cellular/catalytic assays described herein are performed in an ELISA format. The general procedure is as follows: a compound is introduced to cells expressing the test kinase, either naturally or recombinantly, for a selected period of time after which, if the test kinase is a receptor, a ligand known to activate the receptor is added. The cells are lysed and the lysate is transferred to the wells of an ELISA plate previously coated with a specific antibody recognizing the substrate of the enzymatic phosphorylation reaction. Non-substrate components of the cell lysate are washed away and the amount of phosphorylation on the substrate is detected with an antibody specifically recognizing phosphotyrosine compared with control cells that were not contacted with a test compound.
An ELISA assay is conducted to measure the kinase activity of the FLK-1 receptor and more specifically, the inhibition or activation of TK activity on the FLK-1 receptor. Specifically, the following assay can be conducted to measure kinase activity of the FLK-1 receptor in cells genetically engineered to express Flk-1.
a. Corning 96-well ELISA plates (Corning Catalog No. 25805-96);
b. Cappel goat anti-rabbit IgG (catalog no. 55641);
c. PBS (Gibco Catalog No. 450-1300EB);
d. TBSW Buffer (50 mM Tris (pH 7.2), 150 mM NaCl and 0.1% Tween-20);
e. Ethanolamine stock (10% ethanolamine (pH 7.0), stored at 4° C.);
f. HNTG buffer (20 mM HEPES buffer (pH 7.5), 150 mM NaCl, 0.2% Triton X-100, and 10% glycerol);
g. EDTA (0.5 M (pH 7.0) as a 100× stock);
h. Sodium orthovanadate (0.5 M as a 100× stock);
i. Sodium pyrophosphate (0.2 M as a 100× stock);
j. NUNC 96 well V bottom polypropylene plates (Applied Scientific Catalog No. AS-72092);
k. NIH3T3 C7#3 Cells (FLK-1 expressing cells);
l. DMEM with 1× high glucose L-Glutamine (catalog No. 11965-050);
n. L-glutamine, Gibco (catalog no. 25030-016);
o. VEGF, PeproTech, Inc. (catalog no. 100-20)(kept as 1 μg/100 μl stock in Milli-Q dH2O and stored at −20° C.;
p. Affinity purified anti-FLK-1 antiserum;
q. UB40 monoclonal antibody specific for phosphotyrosine (see, Fendley, et al., 1990, Cancer Research 50:1550-1558);
r. EIA grade Goat anti-mouse IgG-POD (BioRad catalog no. 172-1011);
s. 2,2-azino-bis(3-ethylbenz-thiazoline-6-sulfonic acid (ABTS) solution (100 mM citric acid (anhydrous), 250 mM Na2HPO4 (pH 4.0), 0.5 mg/ml ABTS (Sigma catalog no. A-1888)), solution should be stored in dark at 4° C. until ready for use;
t. H2O2 (30% solution) (Fisher catalog no. H325);
u. ABTS/ H2O2 (15 ml ABTS solution, 2 μl H2O2) prepared 5 minutes before use and left at room temperature;
v. 0.2 M HCl stock in H2O;
w. dimethylsulfoxide (100%) (Sigma Catalog No. D-8418); and
y. Trypsin-EDTA (Gibco BRL Catalog No. 25200-049).
1. Coat Corning 96-well ELISA plates with 1.0 μg per well Cappel Anti-rabbit IgG antibody in 0.1M Na2CO3 pH 9.6. Bring final volume to 150 μl per well. Coat plates overnight at 4° C. Plates can be kept up to two weeks when stored at 4° C.
2. Grow cells in Growth media (DMEM, supplemented with 2.0 mM L-Glutamine, 10% FBS) in suitable culture dishes until confluent at 37° C., 5% CO2.
3. Harvest cells by trypsinization and seed in Corning 25850 polystyrene 96-well round bottom cell plates, 25,000 cells/well in 200 μl of growth media.
4. Grow cells at least one day at 37° C., 5% CO2.
5. Wash cells with D-PBS 1×.
6. Add 200 μl/well of starvation media (DMEM, 2.0 mM 1-Glutamine, 0.1% FBS). Incubate overnight at 37° C., 5% CO2.
7. Dilute Compounds 1:20 in polypropylene 96 well plates using starvation media. Dilute dimethylsulfoxide 1:20 for use in control wells.
8. Remove starvation media from 96 well cell culture plates and add 162 μl of fresh starvation media to each well.
9. Add 18 μl of 1:20 diluted compound dilution (from step 7) to each well plus the 1:20 dimethylsulfoxide dilution to the control wells (+/− VEGF), for a final dilution of 1:200 after cell stimulation. Final dimethylsulfoxide is 0.5%. Incubate the plate at 37° C., 5% CO2 for two hours.
10. […]

PDGF-R = PDGF-R Assay (cellular ELISA, U1242 cells); assay type: cell-based; design: concentration or dose not given beside the values
Procedure: as §1
All cell culture media, glutamine, and fetal bovine serum can be purchased from Gibco Life Technologies (Grand Island, N.Y.) unless otherwise specified. All cells are grown in a humid atmosphere of 90-95% air and 5-10% CO2 at 37° C. All cell lines are routinely subcultured twice a week and are negative for mycoplasma as determined by the Mycotect method (Gibco).
For ELISA assays, cells (U1242, obtained from Joseph Schlessinger, NYU) are grown to 80-90% confluency in growth medium (MEM with 10% FBS, NEAA, 1 mM NaPyr and 2 mM GLN) and seeded in 96-well tissue culture plates in 0.5% serum at 25,000 to 30,000 cells per well. After overnight incubation in 0.5% serum-containing medium, cells are changed to serum-free medium and treated with test compound for 2 hr in a 5% CO2, 37° C. incubator. Cells are then stimulated with ligand for 5-10 minute followed by lysis with HNTG (20 mM Hepes, 150 mM NaCl, 10% glycerol, 5 mM EDTA, 5 mM Na3VO4, 0.2% Triton X-100, and 2 mM NaPyr). Cell lysates (0.5 mg/well in PBS) are transferred to ELISA plates previously coated with receptor-specific antibody and which had been blocked with 5% milk in TBST (50 mM Tris-HCl pH 7.2, 150 mM NaCl and 0.1% Triton X-100) at room temperature for 30 min. Lysates are incubated with shaking for 1 hour at room temperature. The plates are washed with TBST four times and then incubated with polyclonal anti-phosphotyrosine antibody at room temperature for 30 minutes. Excess anti-phosphotyrosine antibody is removed by rinsing the plate with TBST four times. Goat anti-rabbit IgG antibody is added to the ELISA plate for 30 min at room temperature followed by rinsing with TBST four more times. ABTS (100 mM citric acid, 250 mM Na2HPO4 and 0.5 mg/mL 2,2′-azino-bis (3-ethylbenzthiazoline-6-sulfonic acid)) plus H2O2 ([…] 30% H2O2 to 10 ml ABTS) is added to the ELISA plates to start color development. Absorbance at 410 nm with a reference wavelength of 630 nm is recorded about 15 to 30 min after ABTS addition.

Structure (SMILES) | Flk Kinase % Inhibition (P.110) (FLK-1 receptor) | PDGF Kinase % Inhibition (P.119) (PDGF-R)
Cc1c(Br)cc(Br)c2c1C(=Cc1ccccc1OCC(=O)O)C(=O)N2 [10728/H10] | −3.8% | 4.5%
COc1cc(C=C2C(=O)Nc3c(Br)cc(Br)c(C)c32)cc2c1OCO2 [10728/H11] | 3.3% | −16.8%
COc1ccc2ccccc2c1C=C1C(=O)Nc2c(Br)cc(Br)c(C)c21 [10729/H02] | 14.3% | 2.3%
COc1ccc(C=C2C(=O)Nc3c(Br)cc(Br)c(C)c32)c2ccccc12 [10729/H03] | 18.3% | −0.7%
CSc1ccc(C=C2C(=O)Nc3c(Br)cc(Br)c(C)c32)cc1 [10729/H04] | 1.1% | −5.6%
Cc1ccsc1C=C1C(=O)Nc2c(Br)cc(Br)c(C)c21 [10729/H05] | 22.4% | −27.6%
Cc1c(Br)cc(Br)c2c1C(=Cc1cccc(Oc3ccccc3)c1)C(=O)N2 [10729/H06] | 11.0% | −12.1%
Cc1c(Br)cc(Br)c2c1C(=Cc1ccccn1)C(=O)N2 [10729/H07] | 9.9% | −43.1%
Cc1c(Br)cc(Br)c2c1C(=Cc1cccnc1)C(=O)N2 [10729/H08] | 8.2% | −1.5%
Cc1c(Br)cc(Br)c2c1C(=Cc1ccncc1)C(=O)N2 [10729/H09] | −2.7% | 0.1%
Cc1c(Br)cc(Br)c2c1C(=Cc1ccc(N3CCCC3)cc1)C(=O)N2 [10729/H10] | 5.3% | −1.5%
Cc1c(Br)cc(Br)c2c1C(=CC1C=CCCC1)C(=O)N2 (centres unmarked) [10729/H11] | 8.9% | 5.0%
COc1ccc(C=C2C(=O)Nc3c(Br)cc(Br)c(C)c32)c(OC)c1OC [10730/H02] | 21.2% | 1.0%
COc1cc(OC)c(OC)cc1C=C1C(=O)Nc2c(Br)cc(Br)c(C)c21 [10730/H03] | 11.5% | −11.7%
COc1cc(C=C2C(=O)Nc3c(Br)cc(Br)c(C)c32)cc(OC)c1OC [10730/H04] | 12.1% | −1.2%
CC(=O)n1cc(C=C2C(=O)Nc3c(Br)cc(Br)c(C)c32)c2ccccc21 [10730/H05] | 11.7% | 22.1%
Cc1c(Br)cc(Br)c2c1C(=Cc1ccc(-c3ccccc3Cl)o1)C(=O)N2 [10730/H07] | 19.0% | 0.6%
Cc1c(Br)cc(Br)c2c1C(=Cc1cc3ccccc3nc1Cl)C(=O)N2 [10730/H08] | 9.2% | 6.3%
COC1CC(C=C2C(=O)Nc3c(Br)cc(Br)c(C)c32)C(OC)O1 (centres unmarked) [10730/H10] | 18.3% | 23.0%
Cc1cc(C=C2C(=O)Nc3c(Br)cc(Br)c(C)c32)oc1C [10730/H11] | 13.9% | 9.4%
CCn1c2ccccc2c2cc(C=C3C(=O)Nc4c(Br)cc(Br)c(C)c43)ccc21 [10731/H02] | 19.7% | −18.7%
Cc1cc2occ(C=C3C(=O)Nc4c(Br)cc(Br)c(C)c43)c(=O)c2cc1C [10731/H03] | 20.0% | 1.8%
C=C(C)C1CC=C(C=C2C(=O)Nc3c(Br)cc(Br)c(C)c32)CC1 (centres unmarked) [10731/H04] | 16.4% | −15.8%
Cc1c(Br)cc(Br)c2c1C(=Cc1coc3ccc(C(C)C)cc3c1=O)C(=O)N2 [10731/H05] | 23.6% | −1.6%
Cc1ccc2occ(C=C3C(=O)Nc4c(Br)cc(Br)c(C)c43)c(=O)c2c1 [10731/H06] | 28.7% | −5.4%
Cc1c(Br)cc(Br)c2c1C(=Cc1coc3ccc([N+](=O)[O-])cc3c1=O)C(=O)N2 [10731/H07] | 74.5% | 36.5%
Cc1c(Br)cc(Br)c2c1C(=Cc1c[nH]c(=O)[nH]c1=O)C(=O)N2 [10731/H08] | 31.4% | −10.1%
COc1ccc2[nH]cc(C=C3C(=O)Nc4c(Br)cc(Br)c(C)c43)c2c1 [10731/H09] | 15.8% | −5.4%

Source: patent US20020026053A1, “Novel 3-(substituted) -2- indolinones compounds and use thereof as inhibitors of protein kinase activity” (priority 1997, published 2002)
